Data on one compound can be found in US5731326A, “PDGF antagonists II” (ZymoGenetics, Inc., priority 1996, dated 1998).

The target of test [1] is T1, cell-surface PDGF receptors (Rattus norvegicus, UniProt Q05030).
T1 construct: endogenous in cells; host or cells: rat smooth muscle cells (SMCs), monolayer culture
Briefly: Inhibition of 125I-PDGF-BB binding to rat SMCs. The settings on record: for 125I PDGF-BB Bound (CPM): specific cpm, nonspecific subtracted, negative control 10006. The method, then:
NNC92-0270 was analyzed for the ability to inhibit ^125 I-PDGF-BB binding to monolayers of rat SMCs. To assay for inhibition of ^125 I-PDGF-BB binding to rat SMCs, the SMCs were plated at approximately 20,000 cells/well in 24-well culture dishes. The cells were used for assay 2-7 days after plating. The test compound was diluted in binding media (500 ml Ham's F-12 (Gibco BRL), 12 ml 1M Hepes pH 7.4, 5 ml 100×PSN (Gibco BRL), 1 gm rabbit serum albumin (Sigma Chemical Co., St. Louis, Mo.) to the concentrations shown in Table 2, then added to the SMCs (1 ml/well) in triplicate. To the wells was then added 50 μl of a ^125 I-PDGF-BB stock solution. Binding media alone was used as the negative control, and the addition of 200 ng/ml of PDGF-BB was used to determine nonspecific binding for ^125 I-PDGF-BB. The cells were incubated for approximately 11/2 hours at 4° C., then washed with binding media to remove unbound ligand. The cells were then incubated with extraction buffer (20 mM Tris-HCl, pH 8.0, 100 mM NaCl, 1 mM EDTA, 0.5% Nonident P-40, 0.5% sodium deoxycholate, 10 mM NaI, 1% bovine serum albumin), and the extracts were harvested and counted in a gamma counter. The data are presented as specific cpm bound for ^125 I-PDGF-BB. Nonspecific binding, determined by the addition of 200 ng/ml of unlabeled PDGF-BB, was 853 cpm, and has been subtracted from the data presented.

The subject of another test is bFGF. As to the kind of experiment: SRE-luciferase antagonist assay, induction by bFGF. It counts as cell-based. The settings on record: Swiss-3T3, SWISS3T3 cells, 5 hours, approximate. The text has this: Initial characterization of NNC92-0270 as a non-peptide PDGF antagonist was made possible through an SRE-Luciferase high through-put assay system which involves selection of substances that are able to block expression of a serum response element (SRE)-luciferase reporter gene expressed in SWISS3T3 cells. […] The degree of antagonist specificity can be determined by comparing the resultant signal for the three growth factors (PDGF, bFGF and EGF). […]
Following induction, luciferase activity was measured using a Promega luciferase assay kit (E1500; Promega Corp., Madison, Wis.) according to the assay kit protocol. […] The amount of luminescence (relative light units, RLU) was determined following a 1 second mix and a 1-3 integration of signal. Basal (uninduced) luciferase signal was subtracted from all measurements, and the luciferase signal induced by test samples was expressed as a percentage of the signal in the control. […]

The next test deals with PMA. Briefly: SRE-luciferase antagonist assay, induction by PMA. It is filed as cell-based. The conditions noted are these: Swiss-3T3, SWISS3T3 cells, 5 hours, approximate.

T1 sequence (Q05030 32-1097): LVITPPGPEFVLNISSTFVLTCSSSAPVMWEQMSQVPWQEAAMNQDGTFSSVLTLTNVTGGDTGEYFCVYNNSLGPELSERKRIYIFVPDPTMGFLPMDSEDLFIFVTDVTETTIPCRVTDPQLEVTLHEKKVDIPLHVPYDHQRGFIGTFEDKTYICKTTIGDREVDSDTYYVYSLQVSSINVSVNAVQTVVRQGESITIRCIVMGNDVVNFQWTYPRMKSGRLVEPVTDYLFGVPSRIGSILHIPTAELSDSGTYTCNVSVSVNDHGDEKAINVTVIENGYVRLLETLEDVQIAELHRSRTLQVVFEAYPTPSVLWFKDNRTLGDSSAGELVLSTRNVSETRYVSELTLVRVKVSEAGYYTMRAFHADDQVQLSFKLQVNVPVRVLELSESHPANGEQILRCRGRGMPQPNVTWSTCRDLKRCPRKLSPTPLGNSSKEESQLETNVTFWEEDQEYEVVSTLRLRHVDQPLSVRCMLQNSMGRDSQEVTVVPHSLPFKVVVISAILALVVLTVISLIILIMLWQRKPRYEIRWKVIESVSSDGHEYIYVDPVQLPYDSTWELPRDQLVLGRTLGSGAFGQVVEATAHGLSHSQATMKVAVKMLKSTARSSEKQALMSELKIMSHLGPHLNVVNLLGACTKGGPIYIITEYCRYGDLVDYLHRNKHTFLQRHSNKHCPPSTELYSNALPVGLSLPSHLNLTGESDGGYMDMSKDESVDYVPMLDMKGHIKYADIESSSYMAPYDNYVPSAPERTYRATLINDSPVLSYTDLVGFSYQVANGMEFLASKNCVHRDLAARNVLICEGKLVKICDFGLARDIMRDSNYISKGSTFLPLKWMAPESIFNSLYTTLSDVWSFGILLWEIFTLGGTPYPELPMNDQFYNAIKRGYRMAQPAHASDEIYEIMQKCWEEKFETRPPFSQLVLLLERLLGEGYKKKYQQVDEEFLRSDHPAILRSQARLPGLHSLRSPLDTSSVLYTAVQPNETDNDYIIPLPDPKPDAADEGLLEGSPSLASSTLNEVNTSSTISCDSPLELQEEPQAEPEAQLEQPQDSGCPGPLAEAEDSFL

For orientation: IC50 means the concentration that inhibits the measured activity by half. As for `O=C(NN1CCCCC1)NS(=O)(=O)c1ccc(CCNC(=O)c2[nH]c3ccccc3c2OCc2ccccc2)cc1` [NNC92-0270], the “125I PDGF-BB Bound (CPM)” value was found to be 5228 CPM in test [1] (6.2 μM); 2823 CPM in test [1] (12.5 μM); 920 CPM in test [1] (25 μM); 532 CPM in test [1] (50 μM); 378 CPM in test [1] (100 μM). For the same compound, the remaining activity at 6.2 µM in test [1] (1.5 h, 6.2 μM, read-out: % Control Binding) came to 52%. For the same compound, the remaining activity at 12.5 µM in test [1] (1.5 h, 12.5 μM, read-out: % Control Binding) was determined as 28%. The remaining activity at 25 µM in test [1] (1.5 h, 25 μM, read-out: % Control Binding) stood at 9%. The remaining activity at 50 µM in test [1] (1.5 h, 50 μM, read-out: % Control Binding) amounted to 5%. The remaining activity at 100 µM in test [1] (1.5 h, 100 μM, read-out: % Control Binding) amounted to 4%. Moreover, the “Inhibition of PDGF-BB binding to cell-surface PDGF receptors (in words)” value in test [1] (rat SMCs) is given as “potent inhibitor”. In addition, the IC50 in the test on bFGF and in the test with PMA was > 100 µM throughout.
